The source of these data is ChEMBL document CHEMBL4033731, “Structural development of 1,2,3,4-tetrahydroisoquinoline-type positive allosteric modulators of prostacyclin receptor (IPPAMs) to improve metabolic stability, and investigation of metabolic fate” (Bioorg Med Chem Lett, 2017).

A short description of data set [1]: Half life in human hepatic microsomes at 0.1 uM by HPLC-MS/MS method. The conditions noted are these: liver microsomes. It counts as ADME, Microsome. (In general: Liver microsomes are vesicles of endoplasmic reticulum, rich in cytochrome P450 enzymes.)
Data set [2] has as its target Prostacyclin receptor (Homo sapiens) (UniProt P43119). As to the kind of experiment: Positive allosteric modulator activity at human prostacyclin receptor expressed in CHO-K1 cells assessed as compound concentration needed to shift agonist concentration response curve leftward by 2-fold by measuring CAMP accumulation. The class given is cell-based.
Data set [3] shares this target. As to the kind of experiment: Positive allosteric modulator activity at human prostacyclin receptor expressed in CHO-K1 cells assessed as compound concentration needed to shift agonist concentration response curve leftward by 2-fold by measuring CAMP accumulation at 100 uM. The class given is cell-based.
A short description of data set [4]: Drug level in human hepatic microsomes treated with 10 uM of 2-((1-tert-butyl-1H-tetrazol-5-yl)(3,4-dihydroisoquinolin-2(1H)-yl)methyl)-6-fluorophenol assessed as drug formation at 10 uM incubated for 90 mins at 37 degC by HPLC-MS/MS method relative to control. The class given is ADME, Liver, Microsome. The conditions noted are these: 1.5 h.
A short description of data set [5]: Drug metabolism in human hepatic microsomes assessed as 2-((1-tert-butyl-1H-tetrazol-5-yl)(3,4-dihydroisoquinolin-2(1H)-yl)methyl)-4-fluorophenol formation at 10 uM incubated for 90 mins at 37 degC by HPLC-MS/MS method relative to control. It counts as ADME, Liver, Microsome. The conditions noted are these: 1.5 h.
A short description of data set [6]: Drug metabolism in human hepatic microsomes assessed as 2-((3,4-dihydroisoquinolin-2(1H)-yl)(1-(1-hydroxy-2-methylpropan-2-yl)-1H-tetrazol-5-yl)methyl)-6-fluorophenol formation at 10 uM incubated for 90 mins at 37 degC by HPLC-MS/MS method relative to control. The class given is ADME, Liver, Microsome. The conditions noted are these: 1.5 h.
Data set [7] is described as follows: Drug metabolism in human hepatic microsomes assessed as peak area for parent compound at 10 uM incubated for 90 mins at 37 degC by HPLC-MS/MS method relative to control. The class given is ADME, Microsome. The conditions noted are these: liver microsomes, read-out: Stability.

Active and inactive are the calls of the source.

Chain of Prostacyclin receptor (Homo sapiens) (P43119 whole entry): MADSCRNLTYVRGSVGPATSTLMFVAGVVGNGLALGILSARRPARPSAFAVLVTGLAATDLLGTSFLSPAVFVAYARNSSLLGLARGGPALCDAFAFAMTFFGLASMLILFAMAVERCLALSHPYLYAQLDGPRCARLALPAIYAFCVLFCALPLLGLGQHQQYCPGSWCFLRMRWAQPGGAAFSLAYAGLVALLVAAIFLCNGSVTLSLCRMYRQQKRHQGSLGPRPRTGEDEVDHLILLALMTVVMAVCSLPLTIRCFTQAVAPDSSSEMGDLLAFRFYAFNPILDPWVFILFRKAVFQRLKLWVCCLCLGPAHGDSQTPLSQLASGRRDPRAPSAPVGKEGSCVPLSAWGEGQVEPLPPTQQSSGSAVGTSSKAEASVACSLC

The term half-life denotes the time needed for the level to fall by half in the phase considered. Low readings indicate rapid decline, high ones slow decline. `CC(C)(C)n1nnnc1C(c1ccccc1F)N1CCc2ccccc2C1` (centres undefined) gave a half-life at 0.1 µM in data set [1] of 3 min. Besides, the Activity in data set [2] turned out to be 4.7 µM.
On the same counts, the results for `CC(C)(C)n1nnnc1C(c1cc(F)ccc1O)N1CCc2ccccc2C1` (centres undefined) are 5 min and 12 µM.
As to `CC(C)(C)NC(=O)C(c1ccccc1)N1CCc2ccccc2C1` (centres undefined), the half-life at 0.1 µM in data set [1] stood at 6 min. The outcome in data set [3] and in data set [2] was inactive.
`CC(C)(C)n1nnnc1C(c1ccccc1)N1CCc2ccccc2C1` (centres undefined) returned a half-life at 0.1 µM in data set [1] of 6 min. Moreover, the Activity in data set [2] was determined as 6.9 µM.
Regarding `CC(C)(CO)n1nnnc1C(c1cccc(F)c1O)N1CCc2ccccc2C1` (centres undefined), the Drug metabolism result in data set [4] is listed as “Metabolite_Detected”.
Compound `COc1ccccc1C(c1nnnn1C(C)(C)C)N1CCC2CCCCC2C1` (centres undefined) returned a half-life at 0.1 µM in data set [1] of 3 min. Also, the Activity in data set [2] was found to be 6.2 µM.
Take `CC(C)(C)n1nnnc1C(c1cccc(F)c1O)N1CCc2ccccc2C1` (centres undefined): the half-life at 0.1 µM in data set [1] was determined as 21 min. The Drug metabolism entry in data set [5] and in data set [6] was “Metabolite_Detected” each time. In data set [2], the Activity turned out to be 8.2 µM. In addition, in data set [7], the remaining at 1.5 h, 10 µM worked out at 1.04%.
Take `CC(C)(C)n1nnnc1C(c1cccc(O)c1O)N1CCc2ccccc2C1` (centres undefined): the Drug metabolism result in data set [4] is recorded as “Metabolite_Detected”.
Regarding `CC(C)(C)n1nnnc1C(c1ccccc1O)N1CCc2ccccc2C1` (centres undefined), the half-life at 0.1 µM in data set [1] was 7 min. For the same compound, the Activity in data set [2] turned out to be 1.4 µM.
For `COc1ccccc1C(c1nnnn1C(C)(C)C)N1CCc2ccc(F)cc2C1` (centres undefined), in that order: 6 min and 15.2 µM.
For `COc1ccccc1C(c1nnnn1C(C)(C)C)N1CCc2ccccc2C1` (centres undefined), in that order: 8 min and 4.3 µM.
